Measured values from US6525001B1, “Substituted pyrimidine and pyridine herbicides” (Mid-American Commercialization Corporation, priority 1997, dated 2003).

How the values were obtained:
Assay type in all cases: in vivo
[1] = test system: sandbur (Cenchrus echinatus); test: Test E pre-/postemergence/post directed; set-up: key: 0 is no injury; 100 is complete control
In short: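 Injury scored visually on a 0–100 scale (100 = complete control) 13 to 21 days after treatment. Test chemicals, formulated with surfactant in non-phytotoxic solvent, were applied to soil within one day of planting, to plants at two to four leaves (three to twenty cm), or as directed spray at plant base.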

[2] = test system: blackgrass (Alopecurus myosuroides); test: Test D; details: PREEMERGENCE
[3] = test system: deadnettle (Lamium amplexicaule); test: Test D; details: PREEMERGENCE
[4] = test system: downy brome (Bromus tectorum); test: Test D; details: PREEMERGENCE
[5] = test system: green foxtail (Setaria viridis); test: Test D; set-up: key: 0 is no effect; 100 is complete control; details: PREEMERGENCE
[6] = test system: littleseed canarygrass (Phalaris minor); test: Test D; details: PREEMERGENCE
rape (Brassica napus) = test: Test D; set-up: key: 0 is no effect; 100 is complete control; details: PREEMERGENCE
[7] = test system: redroot pigweed (Amaranthus retroflexus); test: Test D; details: PREEMERGENCE
[8] = test system: sunflower (Helianthus annuus); test: Test D; details: PREEMERGENCE
[9] = test system: winter wheat (Triticum aestivum); test: Test D; details: PREEMERGENCE
[10] = test system: wild mustard (Sinapis arvensis); test: Test D; set-up: key: 0 is no effect; 100 is complete control; details: PREEMERGENCE
wild oat (Avena fatua) = test: Test D; details: PREEMERGENCE
[11] = test system: galium 2 (Galium aparine); test: Test D; set-up: key: 0 is no effect; 10 is complete control; details: POSTEMERGENCE
Procedure: (§1) Compounds evaluated in this test were formulated in a non-phytotoxic solvent mixture which included a surfactant and applied to plants that were in the 1- to 4-leaf stage (postemergence application). A mixture of sandy loam soil and greenhouse potting mix in a 60:40 ratio was used for the postemergence test.
(§2) Plantings of these crops and weed species were adjusted to produce plants of appropriate size for the postemergence test. All plant species were grown using normal greenhouse practices. Crop and weed species include alfalfa (Medicago sativa), annual bluegrass (Poa annua), blackgrass (Alopecurus myosuroides), black nightshade (Solanum nigra), chickweed (Stellaria media), common poppy (Papaver rhoeas), deadnettle (Lamium amplexicaule), downy brome (Bromus tectorum), field violet (Viola arvensis), galium 2 (Galium aparine), green foxtail (Setaria viridis), Italian ryegrass (Lolium multiflorum), jointed goatgrass (Aegilops cylindrica), kochia (Kochia scoparia), lambsquarters (Chenopodium album), lentil (Lens culinaris), littleseed canarygrass (Phalaris minor), pea (Pisum sativum), potato (Solanum tuberosum), rape (Brassica napus), redroot pigweed (Amaranthus retroflexus), Russian thistle (Salsola kali), scentless chamomile (Matricaria inodora), sorghum (Sorghum vulgare), spring barley (Hordeum vulgare), sugar beet (Beta vulgaris), sunflower (Helianthus annuus), ivyleaf speedwell (Veronica hederaefolia), spring wheat (Triticum aestivum), winter wheat (Triticum aestivum), wild buckwheat (Polygonum convolvulus), wild mustard (Sinapis arvensis), wild oat (Avena fatua), windgrass (Apera spica-venti) and winter barley (Hordeum vulgare).
(§3) Treated plants and untreated controls were maintained in a greenhouse for approximately 21 to 28 days, after which all treated plants were compared to untreated controls and visually evaluated. Plant response ratings, summarized in Table D, are based upon a 0 to 100 scale where 0 is no effect and 100 is complete control. A dash response (−) means no test result.

kochia (Kochia scoparia) = test: Test D; set-up: key: 0 is no effect; 10 is complete control; details: POSTEMERGENCE
Procedure: as §1, §2, §3

[12] = test system: redroot pigweed (Amaranthus retroflexus); test: Test D; set-up: key: 0 is no effect; 10 is complete control; details: POSTEMERGENCE
Procedure: as §1, §2, §3

[13] = test system: wild buckwheat (Polygonum convolvulus); test: Test D; set-up: key: 0 is no effect; 10 is complete control; details: POSTEMERGENCE
Procedure: as §1, §2, §3

Structure (SMILES): CCc1cnc(-n2ccc(C(F)(F)F)n2)nc1Cc1cccc(C(F)(F)F)c1 [Compound 46]
- Plant response rating, Sandbur ([1]; PREEMERGENCE, Rate 32 g/ha): 0
- Plant response rating, Blackgrass ([2]; Rate 31 g/ha): 10
- Plant response rating, Blackgrass ([2]; Rate 62 g/ha): 60
- Plant response rating, Deadnettle ([3]; Rate 31 g/ha): 90
- Plant response rating, Deadnettle ([3]; Rate 62 g/ha): 90
- Plant response rating, Downy brome ([4]; Rate 31 g/ha): 70
- Plant response rating, Downy brome ([4]; Rate 62 g/ha): 70
- Plant response rating, Green foxtail ([5]; Rate 31 g/ha): 80
- Plant response rating, Green foxtail ([5]; Rate 62 g/ha): 100
- Plant response rating, LS canarygrass ([6]; Rate 31 g/ha): 70
- Plant response rating, LS canarygrass ([6]; Rate 62 g/ha): 90
- Plant response rating, Rape (rape (Brassica napus); Rate 31 g/ha): 50
- Plant response rating, Rape (rape (Brassica napus); Rate 62 g/ha): 100
- Plant response rating, Redroot pigweed ([7]; Rate 31 g/ha): 70
- Plant response rating, Redroot pigweed ([7]; Rate 62 g/ha): 70
- Plant response rating, Sunflower ([8]; Rate 31 g/ha): 10
- Plant response rating, Sunflower ([8]; Rate 62 g/ha): 30
- Plant response rating, Wheat (winter) ([9]; Rate 31 g/ha): 40
- Plant response rating, Wheat (winter) ([9]; Rate 62 g/ha): 2
- Plant response rating, Wild mustard ([10]; Rate 31 g/ha): 90
- Plant response rating, Wild mustard ([10]; Rate 62 g/ha): 100
- Plant response rating, Wild oat (wild oat (Avena fatua); Rate 31 g/ha): 50
- Plant response rating, Wild oat (wild oat (Avena fatua); Rate 62 g/ha): 70

Structure (SMILES): Cc1cnc(-n2cnc(C(F)(F)F)n2)nc1Cn1ccc(C(F)(F)F)n1 [Compound 51]
- Plant response rating, Blackgrass ([2]; Rate 31 g/ha): 60
- Plant response rating, Blackgrass ([2]; Rate 62 g/ha): 80
- Plant response rating, Deadnettle ([3]; Rate 31 g/ha): 80
- Plant response rating, Deadnettle ([3]; Rate 62 g/ha): 80
- Plant response rating, Downy brome ([4]; Rate 31 g/ha): 80
- Plant response rating, Downy brome ([4]; Rate 62 g/ha): 80
- Plant response rating, Green foxtail ([5]; Rate 31 g/ha): 100
- Plant response rating, Green foxtail ([5]; Rate 62 g/ha): 100
- Plant response rating, LS canarygrass ([6]; Rate 31 g/ha): 80
- Plant response rating, LS canarygrass ([6]; Rate 62 g/ha): 90
- Plant response rating, Rape (rape (Brassica napus); Rate 31 g/ha): 100
- Plant response rating, Rape (rape (Brassica napus); Rate 62 g/ha): 100
- Plant response rating, Redroot pigweed ([7]; Rate 31 g/ha): 70
- Plant response rating, Redroot pigweed ([7]; Rate 62 g/ha): 70
- Plant response rating, Sunflower ([8]; Rate 31 g/ha): 40
- Plant response rating, Sunflower ([8]; Rate 62 g/ha): 40
- Plant response rating, Wheat (winter) ([9]; Rate 31 g/ha): 30
- Plant response rating, Wheat (winter) ([9]; Rate 62 g/ha): 55
- Plant response rating, Wild mustard ([10]; Rate 31 g/ha): 100
- Plant response rating, Wild mustard ([10]; Rate 62 g/ha): 100
- Plant response rating, Wild oat (wild oat (Avena fatua); Rate 31 g/ha): 80
- Plant response rating, Wild oat (wild oat (Avena fatua); Rate 62 g/ha): 95

Structure (SMILES): Cc1cnc(-c2ccc(C(F)(F)F)cc2)nc1Cc1cccc(C(F)(F)F)c1 [Example 1, 5-methyl-2-[4-(trifluoromethyl)phenyl]-4-[[3-(trifluoromethyl)phenyl]methyl]pyrimidine]
- Plant response rating, Galium ([11]; Rate 16 g/ha): 0
- Plant response rating, Galium ([11]; Rate 31 g/ha): 60
- Plant response rating, Galium ([11]; Rate 62 g/ha): 70
- Plant response rating, Galium ([11]; Rate 125 g/ha): 70
- Plant response rating, Kochia (kochia (Kochia scoparia); Rate 16 g/ha): 0
- Plant response rating, Kochia (kochia (Kochia scoparia); Rate 31 g/ha): 60
- Plant response rating, Kochia (kochia (Kochia scoparia); Rate 62 g/ha): 80
- Plant response rating, Kochia (kochia (Kochia scoparia); Rate 125 g/ha): 70
- Plant response rating, Redroot pigweed ([12]; Rate 16 g/ha): 0
- Plant response rating, Redroot pigweed ([12]; Rate 31 g/ha): 70
- Plant response rating, Redroot pigweed ([12]; Rate 62 g/ha): 70
- Plant response rating, Redroot pigweed ([12]; Rate 125 g/ha): 50
- Plant response rating, Wild buckwheat ([13]; Rate 16 g/ha): 0
- Plant response rating, Wild buckwheat ([13]; Rate 31 g/ha): 0
- Plant response rating, Wild buckwheat ([13]; Rate 62 g/ha): 0
- Plant response rating, Wild buckwheat ([13]; Rate 125 g/ha): 20
- Plant response rating, Blackgrass ([2]; Rate 31 g/ha): 30
- Plant response rating, Blackgrass ([2]; Rate 62 g/ha): 50
- Plant response rating, Blackgrass ([2]; Rate 125 g/ha): 60
- Plant response rating, Blackgrass ([2]; Rate 250 g/ha): 70
- Plant response rating, Deadnettle ([3]; Rate 31 g/ha): 60
- Plant response rating, Deadnettle ([3]; Rate 62 g/ha): 65
- Plant response rating, Deadnettle ([3]; Rate 125 g/ha): 85
- Plant response rating, Deadnettle ([3]; Rate 250 g/ha): 90
- Plant response rating, Downy brome ([4]; Rate 31 g/ha): 30
- Plant response rating, Downy brome ([4]; Rate 62 g/ha): 50
- Plant response rating, Downy brome ([4]; Rate 125 g/ha): 60
- Plant response rating, Green foxtail ([5]; Rate 31 g/ha): 60
- Plant response rating, Green foxtail ([5]; Rate 62 g/ha): 100
- Plant response rating, Green foxtail ([5]; Rate 125 g/ha): 100
- Plant response rating, Green foxtail ([5]; Rate 250 g/ha): 100
- Plant response rating, LS canarygrass ([6]; Rate 31 g/ha): 20
- Plant response rating, LS canarygrass ([6]; Rate 62 g/ha): 60
- Plant response rating, LS canarygrass ([6]; Rate 125 g/ha): 85
- Plant response rating, LS canarygrass ([6]; Rate 250 g/ha): 70
- Plant response rating, Rape (rape (Brassica napus); Rate 31 g/ha): 30
- Plant response rating, Rape (rape (Brassica napus); Rate 62 g/ha): 75
- Plant response rating, Rape (rape (Brassica napus); Rate 125 g/ha): 100
- Plant response rating, Rape (rape (Brassica napus); Rate 250 g/ha): 100
- Plant response rating, Redroot pigweed ([7]; Rate 31 g/ha): 75
- Plant response rating, Redroot pigweed ([7]; Rate 62 g/ha): 70
- Plant response rating, Redroot pigweed ([7]; Rate 125 g/ha): 75
- Plant response rating, Redroot pigweed ([7]; Rate 250 g/ha): 70
- Plant response rating, Sunflower ([8]; Rate 31 g/ha): 10
- Plant response rating, Sunflower ([8]; Rate 62 g/ha): 35
- Plant response rating, Sunflower ([8]; Rate 125 g/ha): 50
- Plant response rating, Sunflower ([8]; Rate 250 g/ha): 30
- Plant response rating, Wheat (winter) ([9]; Rate 31 g/ha): 10
- Plant response rating, Wheat (winter) ([9]; Rate 62 g/ha): 10
- Plant response rating, Wheat (winter) ([9]; Rate 125 g/ha): 20
- Plant response rating, Wheat (winter) ([9]; Rate 250 g/ha): 40
- Plant response rating, Wild mustard ([10]; Rate 31 g/ha): 60
- Plant response rating, Wild mustard ([10]; Rate 62 g/ha): 100
- Plant response rating, Wild mustard ([10]; Rate 125 g/ha): 100
- Plant response rating, Wild mustard ([10]; Rate 250 g/ha): 98
- Plant response rating, Wild oat (wild oat (Avena fatua); Rate 31 g/ha): 20
- Plant response rating, Wild oat (wild oat (Avena fatua); Rate 62 g/ha): 60
- Plant response rating, Wild oat (wild oat (Avena fatua); Rate 125 g/ha): 60
- Plant response rating, Wild oat (wild oat (Avena fatua); Rate 250 g/ha): 90

Structure (SMILES): Cc1cnc(-n2ccc(C(F)(F)F)n2)nc1Cc1cccc(C(F)(F)F)c1 [Example 2, 5-methyl-4-[[3-(trifluoromethyl)phenyl]methyl]-2-[3-(trifluoromethyl)-1H-pyrazol-1-yl]pyrimidine]
- Plant response rating, Sandbur ([1]; POSTEMERGENCE, Rate 32 g/ha): 0

Structure (SMILES): Cc1cnc(-c2ccc(C(F)(F)F)cc2)nc1Cn1ccc(C(F)(F)F)n1 [compound 9]
- Plant response rating, Sandbur ([1]; POSTEMERGENCE, Rate 125 g/ha): 0
- Plant response rating, Sandbur ([1]; POSTEMERGENCE, Rate 250 g/ha): 0
- Plant response rating, Sandbur ([1]; PREEMERGENCE, Rate 32 g/ha): 0
- Plant response rating, Sandbur ([1]; PREEMERGENCE, Rate 64 g/ha): 0
